Measured values from patent US10131648B2, “Substituted benzothiophenyl derivatives as GPR40 agonists for the treatment of type II diabetes” (Janssen Pharmaceutica NV, priority 2014, dated 2018).
Several values for one entry are separate records, joined by “and”; a condition that tells them apart may be missing. Equal entries are not always repeated.

Biological target: human GPR40 (Homo sapiens (Human), UniProt O14842)
Assay: GPR40 Calcium Flux Assay
Assay type: cell-based
Details: transfected HEK293 cells stably expressing human GPR40; Ca2+ mobilization; mean data; read-out: hGPR40 Ca^2+ Assay EC50
Experimental: Compounds were tested in a calcium flux assay using transfected HEK293 cells stably expressing either human GPR40 or rat GPR40. Human GPR40 expressing cells were cultured in DMEM-High Glucose media supplemented with 10% fetal bovine serum, 1×L-Glutamine, 1×Penicillin/Streptomycin and 500 μg/mL G418. Rat GPR40 expressing cells were cultured in DMEM-High Glucose media supplemented with 10% fetal bovine serum and 1 μg/mL puromycin. Cells were plated into poly-D-lysine coated 384-well plates and cultured overnight in a 37° C. humidified tissue culture incubator under 5% CO2/[…] atmosphere. On the day of the experiment, the culture media was replaced with assay buffer (HBSS, 20 mM HEPES, 0.1% BSA) and the cells incubated at 37° C. for 1 h. Calcium-sensitive fluorescent dye (Fluo 8 No-Wash Calcium Dye, ABD Bioquest) was then added and the cells incubated for another 30 min at 37° C. followed by 15 min at room temperature while protected from the light. The cell plate and a plate of diluted compounds of Formula (I) were loaded into a fluorescent plate reader that added compounds onto the cells while measuring the fluorescence intensity of each well. The plate reader recorded fluorescence intensity at 1 second intervals for 8 min and provided the data for analysis in an Excel format. EC50 values were calculated using Prism (GraphPad) software.

human GPR40, sequence (O14842 whole entry): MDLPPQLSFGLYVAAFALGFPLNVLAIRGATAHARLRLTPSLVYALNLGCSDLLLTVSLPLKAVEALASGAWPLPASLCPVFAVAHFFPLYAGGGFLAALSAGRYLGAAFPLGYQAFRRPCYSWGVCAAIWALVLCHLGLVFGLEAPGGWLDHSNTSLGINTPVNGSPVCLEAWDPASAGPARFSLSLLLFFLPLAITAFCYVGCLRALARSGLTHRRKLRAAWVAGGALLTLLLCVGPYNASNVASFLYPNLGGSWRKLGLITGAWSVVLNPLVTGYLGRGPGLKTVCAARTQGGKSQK

Row | SMILES | EC50
1 | CC#CC(CC(=O)O)c1ccc(OCc2ccc3scc(-c4ccc(OCC5(C)CS(=O)(=O)C5)cc4C)c3c2)nc1 (stereo not shown) [Cpd 64, 3-(6-((3-(2-Methyl-4-((3-methyl-1,1-dioxidothietan-3-yl)methoxy)phenyl)benzo[b]thiophen-5-yl)methoxy)pyridin-3-yl)hex-4-ynoic acid] | 21 nM
2 | CC#C[C@@H](CC(=O)O)c1ccc(OCc2ccc3scc(-c4cc(OCCOC)ccc4C)c3c2)cc1 [Cpd 65, (3S)-3-[4-([3-[5-(2-Methoxyethoxy)-2-methylphenyl]-1-benzothiophen-5-yl]methoxy)phenyl]hex-4-ynoic acid] | 11 nM
3 | CC#C[C@@H](CC(=O)O)c1ccc(OCc2ccc3scc(-c4c(C)cccc4OCCOC)c3c2)cc1 [Cpd 66, (3S)-3-[4-([3-[2-(2-Methoxyethoxy)-6-methylphenyl]-1-benzothiophen-5-yl]methoxy)phenyl]hex-4-ynoic acid] | 14 nM
4 | CC#C[C@@H](CC(=O)O)c1ccc(OCc2ccc3scc(-c4cccc(OCCOC)c4C)c3c2)cc1 [Cpd 67, (3S)-3-[4-([3-[3-(2-Methoxyethoxy)-2-methylphenyl]-1-benzothiophen-5-yl]methoxy)phenyl]hex-4-ynoic acid] | 9 nM
5 | CC#C[C@@H](CC(=O)O)c1ccc(OCc2ccc3scc(-c4ccccc4OCCOC)c3c2)cc1 [Cpd 68, (3S)-3-[4-([3-[2-(2-Methoxyethoxy)phenyl]-1-benzothiophen-5-yl]methoxy)phenyl]hex-4-ynoic acid] | 19 nM
6 | CC#C[C@H](CC(=O)O)c1ccc(OCc2ccc3scc(-c4ccc(OCCC(C)(C)O)cc4C)c3c2)nc1 [Cpd 70, (3S)-3-(6-((3-(4-(3-Hydroxy-3-methylbutoxy)-2-methylphenyl)benzo[b]thiophen-5-yl)methoxy)pyridin-3-yl)hex-4-ynoic acid] | 500 nM
7 | CC#C[C@@H](CC(=O)O)c1ccc(OCc2ccc3scc(-c4ccc(OCCC(C)(C)O)cc4C)c3c2)nc1 [Cpd 71, (3R)-3-(6-((3-(4-(3-Hydroxy-3-methylbutoxy)-2-methylphenyl)benzo[b]thiophen-5-yl)methoxy)pyridin-3-yl)hex-4-ynoic acid] | 12 nM
8 | CC#C[C@H](CC(=O)O)c1ccc(OCc2ccc3scc(-c4ccc(OCC5CCOCC5)cc4C)c3c2)nc1 [Cpd 72, (3S)-3-(6-((3-(2-Methyl-4-((tetrahydro-2H-pyran-4-yl)methoxy)phenyl)benzo[b]thiophen-5-yl)methoxy)pyridin-3-yl)hex-4-ynoic acid] | 1330 nM
9 | CC#C[C@@H](CC(=O)O)c1ccc(OCc2ccc3scc(-c4ccc(OCC5CCOCC5)cc4C)c3c2)nc1 [Cpd 73, (3R)-3-(6-((3-(2-Methyl-4-((tetrahydro-2H-pyran-4-yl)methoxy)phenyl)benzo[b]thiophen-5-yl)methoxy)pyridin-3-yl)hex-4-ynoic acid] | 13 nM
10 | CC#C[C@H](CC(=O)O)c1ccc(OCc2ccc3scc(-c4ccc(OCC5CCS(=O)(=O)CC5)cc4C)c3c2)nc1 [Cpd 74, (3S)-3-(6-((3-(4-((1,1-Dioxidotetrahydro-2H-thiopyran-4-yl)methoxy)-2-methylphenyl)benzo[b]thiophen-5-yl)methoxy)pyridin-3-yl)hex-4-ynoic acid] | 180 nM
11 | CC#C[C@@H](CC(=O)O)c1ccc(OCc2ccc3scc(-c4ccc(OCC5CCS(=O)(=O)CC5)cc4C)c3c2)nc1 [Cpd 75, (3R)-3-(6-((3-(4-((1,1-Dioxidotetrahydro-2H-thiopyran-4-yl)methoxy)-2-methylphenyl)benzo[b]thiophen-5-yl)methoxy)pyridin-3-yl)hex-4-ynoic acid] | 7 nM
12 | CC#C[C@H](CC(=O)O)c1ccc(OCc2ccc3scc(-c4ccc(OCCOC)cc4C)c3c2)nc1 [Cpd 76, (3S)-3-(6-((3-(4-(2-Methoxyethoxy)-2-methylphenyl)benzo[b]thiophen-5-yl)methoxy)pyridin-3-yl)hex-4-ynoic acid] | 830 nM
13 | CC#C[C@@H](CC(=O)O)c1ccc(OCc2ccc3scc(-c4ccc(OCCOC)cc4C)c3c2)nc1 [Cpd 77, (3R)-3-(6-((3-(4-(2-Methoxyethoxy)-2-methylphenyl)benzo[b]thiophen-5-yl)methoxy)pyridin-3-yl)hex-4-ynoic acid] | 16 nM and 6 nM and 5 nM
14 | CC#C[C@@H](CC(=O)O)c1ccc(OCc2ccc3scc(-c4cccnc4OC)c3c2)cc1 [Cpd 78, (3S)-3-(4-((3-(2-Methoxypyridin-3-yl)benzo[b]thiophen-5-yl)methoxy)phenyl)hex-4-ynoic acid] | 9 nM
15 | CC#C[C@@H](CC(=O)O)c1ccc(OCc2ccc3scc(-c4ccccc4OC)c3c2)cc1 [Cpd 79, (3S)-3-(4-((3-(2-Methoxyphenyl)benzo[b]thiophen-5-yl)methoxy)phenyl)hex-4-ynoic acid] | 28 nM
16 | CC#C[C@@H](CC(=O)O)c1ccc(OCc2ccc3scc(-c4ccc(OC)nc4C)c3c2)cc1 [Cpd 80, (3S)-3-(4-((3-(6-Methoxy-2-methylpyridin-3-yl)benzo[b]thiophen-5-yl)methoxy)phenyl)hex-4-ynoic acid] | 20 nM

Row | SMILES | EC50
17 | CC#C[C@@H](CC(=O)O)c1ccc(OCc2ccc3scc(-c4cnccc4OC)c3c2)cc1 [Cpd 81, (3S)-3-(4-((3-(4-Methoxypyridin-3-yl)benzo[b]thiophen-5-yl)methoxy)phenyl)hex-4-ynoic acid] | 11 nM
18 | CC#C[C@@H](CC(=O)O)c1ccc(OCc2ccc3scc(-c4cnc(OC)cc4C)c3c2)cc1 [Cpd 82, (3S)-3-(4-((3-(6-Methoxy-4-methylpyridin-3-yl)benzo[b]thiophen-5-yl)methoxy)phenyl)hex-4-ynoic acid] | 37 nM
19 | CC#C[C@@H](CC(=O)O)c1ccc(OCc2ccc3scc(-c4ccncc4OC)c3c2)cc1 [Cpd 83, (3S)-3-(4-((3-(3-Methoxypyridin-4-yl)benzo[b]thiophen-5-yl)methoxy)phenyl)hex-4-ynoic acid] | 10 nM
20 | CC#C[C@@H](CC(=O)O)c1ccc(OCc2ccc3scc(-c4ncc(OC)cc4C)c3c2)cc1 [Cpd 84, (3S)-3-(4-((3-(5-Methoxy-3-methylpyridin-2-yl)benzo[b]thiophen-5-yl)methoxy)phenyl)hex-4-ynoic acid] | 52 nM
21 | CC#C[C@@H](CC(=O)O)c1ccc(OCc2ccc3scc(-c4ccccc4C)c3c2)nc1 [Cpd 85, (3R)-3-[6-[[3-(2-Methylphenyl)benzo[b]thiophen-5-yl]methoxy]pyridin-3-yl]hex-4-ynoic acid] | 7 nM and 6 nM
22 | CC#C[C@@H](CC(=O)O)c1ccc(COc2ccc3scc(-c4ccc(OC5CCOC5)cc4C)c3c2)cc1 (stereo partly drawn) [Cpd 86, (3S)-3-[4-[([3-[2-Methyl-4-(tetrahydrofuran-3-yloxy)phenyl]-1-benzothiophen-5-yl]oxy)methyl]phenyl]hex-4-ynoic acid] | 8 nM
23 | CC#C[C@@H](CC(=O)O)c1ccc(OCc2ccc3scc(-c4cc(OCCOC)ccc4C)c3c2)nc1 [Cpd 87, (3R)-3-(6-((3-(5-(2-Methoxyethoxy)-2-methylphenyl)benzo[b]thiophen-5-yl)methoxy)pyridin-3-yl)hex-4-ynoic acid] | 11 nM
24 | CC#C[C@@H](CC(=O)O)c1ccc(OCc2ccc3scc(-c4cccc(OCCOC)c4C)c3c2)nc1 [Cpd 88, (3R)-3-(6-((3-(3-(2-Methoxyethoxy)-2-methylphenyl)benzo[b]thiophen-5-yl)methoxy)pyridin-3-yl)hex-4-ynoic acid] | 8 nM
25 | CC#C[C@@H](CC(=O)O)c1ccc(OCc2ccc3scc(-c4ncc(OCCOC)cc4C)c3c2)nc1 [Cpd 89, (3R)-3-(6-((3-(5-(2-Methoxyethoxy)-3-methylpyridin-2-yl)benzo[b]thiophen-5-yl)methoxy)pyridin-3-yl)hex-4-ynoic acid] | 20 nM
26 | CC#C[C@@H](CC(=O)O)c1ccc(OCc2ccc3scc(-c4cc(Cl)ncc4C)c3c2)nc1 [Cpd 90, (3R)-3-(6-((3-(2-Chloro-5-methylpyridin-4-yl)benzo[b]thiophen-5-yl)methoxy)pyridin-3-yl)hex-4-ynoic acid] | 15 nM
27 | CC#C[C@@H](CC(=O)O)c1ccc(OCc2ccc3scc(-c4ncccc4OC)c3c2)cc1 [Cpd 91, (3S)-3-(4-((3-(3-Methoxypyridin-2-yl)benzo[b]thiophen-5-yl)methoxy)phenyl)hex-4-ynoic acid] | 17 nM
28 | CC#C[C@@H](CC(=O)O)c1ccc(OCc2ccc3scc(-c4cc(OCCOC)cnc4C)c3c2)nc1 [Cpd 92, (3R)-3-(6-((3-(5-(2-Methoxyethoxy)-2-methylpyridin-3-yl)benzo[b]thiophen-5-yl)methoxy)pyridine-3-yl)hex-4-ynoic acid] | 13 nM
29 | CC#C[C@@H](CC(=O)O)c1ccc(OCc2ccc3scc(-c4nc(Cl)ccc4C)c3c2)cc1 [Cpd 93, (3S)-3-(4-((3-(6-Chloro-3-methylpyridin-2-yl)benzo[b]thiophen-5-yl)methoxy)phenyl)hex-4-ynoic acid] | 15 nM
30 | CC#C[C@@H](CC(=O)O)c1ccc(OCc2ccc3scc(-c4nc(OC)ccc4C)c3c2)cc1 [Cpd 94, (3S)-3-(4-((3-(6-Methoxy-3-methylpyridin-2-yl)benzo[b]thiophen-5-yl)methoxy)phenyl)hex-4-ynoic acid] | 15 nM
31 | CC#C[C@@H](CC(=O)O)c1ccc(OCc2ccc3scc(-c4ccc(CC5CCNCC5)cc4C)c3c2)cc1 [Cpd 95, (3S)-3-(4-((3-(2-Methyl-4-(piperidin-4-ylmethyl)phenyl)benzo[b]-thiophen-5-yl)methoxy)phenyl)hex-4-ynoic acid] | 4 nM
